The results in this text go back to patent US20260001928A1 (CORTERIA PHARMACEUTICALS, priority 2022, published 2026).

In this assay the target is T1, CFR1R receptor (Homo sapiens, UniProt P34998).
T1 construct: host or cells: CHO-K1 (clone 2)
T1 sequence (P34998 24-415): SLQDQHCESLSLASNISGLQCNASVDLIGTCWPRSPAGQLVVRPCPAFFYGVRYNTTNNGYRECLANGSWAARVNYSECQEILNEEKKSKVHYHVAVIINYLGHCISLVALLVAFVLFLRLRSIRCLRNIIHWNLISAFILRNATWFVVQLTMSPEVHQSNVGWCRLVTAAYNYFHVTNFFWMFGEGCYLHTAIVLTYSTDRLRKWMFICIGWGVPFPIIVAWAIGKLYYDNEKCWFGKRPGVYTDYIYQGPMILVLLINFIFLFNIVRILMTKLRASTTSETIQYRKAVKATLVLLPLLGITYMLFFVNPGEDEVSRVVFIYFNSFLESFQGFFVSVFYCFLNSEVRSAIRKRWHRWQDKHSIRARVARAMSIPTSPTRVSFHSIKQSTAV
The assay is described as follows: Activity at anti-target CFR1R receptor, cAMP assay in CRF1R-overexpression CHO-K1 cells. Type of assay: cell-based. To be noted: 100% = Sauvagine at 100 nM. On the procedure: Assessment of activity at anti-target CFR1R receptor is done using the same procedure as the one described for the TeloHEAC cell line. The CRF1R-overexpression CHO-K1 cell line clone 2 was purchased from PerkinElmer. Cells were grown in a 10 cm dish at 37° C./5% CO2 in medium (F12 (Hams)/10% FBS/400 μg/ml G418) to near confluence. At that stage, cells were harvested, resuspended to 10 million/mL in culture medium without G418 and with 10% DMSO. 1 mL vial aliquots were slowly frozen to −80° C. in isopropanol and then transferred in liquid nitrogen for storage. These vials were used to run the experiment following the procedure reported in the previous paragraph, except for the compound used in the control well to define the 100% activation (Sauvagine at 100 nM) and the cell density (final cell density: 4000 cells/well)

*1 amine or outer side, *2 acyl side, *3 side chain or, on linkers, in order; H or OH if unused. Where a SMILES comes first, the peptide text is derived from it. Side-chain parts run from the residue outwards. [ ]: non-standard residue; d: D form. The star is where a group is joined. C18 diacid = O=C(O)CCCCCCCCCCCCCCCCC(=O)*; C16 diacid = O=C(O)CCCCCCCCCCCCCCC(=O)*; γGlu = O=C(O)[C@H](CCC(=O)[*:2])N[*:1]; Pentanoyl = CCCCC(=O)*; AEEA = NCCOCCOCC(=O)O; Aib = CC(C)(N)C(=O)O

Take `CC[C@H](C)[C@H](N)C(=O)N[C@H](C(=O)N[C@@H](CC(C)C)C(=O)N[C@@H](CO)C(=O)N[C@@H](CC(C)C)C(=O)N[C@@H](CC(=O)O)C(=O)N[C@H](C(=O)N1CCC[C@H]1C(=O)N[C@H](C(=O)N[C@@H](CCCCN)C(=O)N[C@@H](CC(C)C)C(=O)N[C@@H](CCCCNC(=O)COCCOCCNC(=O)COCCOCCNC(=O)CC[C@H](NC(=O)CC[C@H](NC(=O)CCCCCCCCCCCCCCCCC(=O)O)C(=O)O)C(=O)O)C(=O)N[C@@H](CCC(N)=O)C(=O)NC(C)(C)C(=O)N[C@@H](CC(C)C)C(=O)N[C@@H](CC(C)C)C(=O)N[C@@H](CCCCN)C(=O)N[C@@H](CCC(N)=O)C(=O)N[C@@H](CCC(=O)O)C(=O)N[C@@H](CCCNC(=N)N)C(=O)N[C@@H](CCC(N)=O)C(=O)N[C@@H](CCCCN)C(=O)N[C@@H](CCCCN)C(=O)N[C@@H](CCC(N)=O)C(=O)N[C@@H](CCCNC(=N)N)C(=O)N[C@@H](CCC(=O)O)C(=O)N[C@@H](CCC(N)=O)C(=O)N[C@@H](C)C(=O)N[C@@H](CCC(=O)O)C(=O)N[C@@H](CCCCN)C(=O)N[C@@H](CC(N)=O)C(=O)NC(C)(C)C(=O)N[C@@H](CCC(N)=O)C(=O)N[C@H](C(=O)N[C@@H](CC(C)C)C(=O)N[C@@H](CCC(=O)O)C(=O)N[C@@H](CCC(N)=O)C(=O)N[C@H](C(N)=O)C(C)C)[C@@H](C)CC)[C@@H](C)CC)C(C)C)C(C)C` [compound 25] (H-IVLSLDVPIKLK([AEEA-AEEA-γGlu-γGlu-C18 diacid])Q[Aib]LLKQERQKKQREQAEKN[Aib]QILEQV-NH2): the “Emax (% I)” value was found to be 6 % I.

For the compound `CC[C@H](C)[C@H](NC(C)=O)C(=O)N[C@H](C(=O)N[C@@H](CC(C)C)C(=O)N[C@@H](CO)C(=O)N[C@@H](CC(C)C)C(=O)N[C@@H](CC(=O)O)C(=O)N[C@@H](C(=O)N1CCC[C@H]1C(=O)N[C@H](C(=O)N[C@@H](CCCCN)C(=O)N[C@@H](CC(C)C)C(=O)N[C@@H](CCCCNC(=O)COCCOCCNC(=O)COCCOCCNC(=O)CC[C@H](NC(=O)CC[C@H](NC(=O)CCCCCCCCCCCCCCCCC(=O)O)C(=O)O)C(=O)O)C(=O)N[C@@H](CCC(N)=O)C(=O)N[C@H](C(=O)N[C@@H](CC(C)C)C(=O)N[C@@H](CC(C)C)C(=O)N[C@@H](CCCCN)C(=O)N[C@@H](CCC(N)=O)C(=O)N[C@@H](CCC(=O)O)C(=O)N[C@@H](CCCNC(=N)N)C(=O)N[C@@H](CCC(N)=O)C(=O)N[C@@H](CCCCN)C(=O)N[C@@H](CCCCN)C(=O)N[C@@H](CCC(N)=O)C(=O)N[C@@H](CCCNC(=N)N)C(=O)N[C@@H](CCC(=O)O)C(=O)N[C@@H](CCC(N)=O)C(=O)N[C@@H](C)C(=O)N[C@@H](CCC(=O)O)C(=O)N[C@@H](CCCCN)C(=O)N[C@@H](CC(N)=O)C(=O)NC(C)(C)C(=O)N[C@@H](CCC(N)=O)C(=O)N[C@H](C(=O)N[C@@H](CC(C)C)C(=O)N[C@@H](CCC(=O)O)C(=O)N[C@@H](CCC(N)=O)C(=O)N[C@H](C(N)=O)C(C)C)[C@@H](C)CC)[C@@H](C)CC)[C@@H](C)CC)C(C)C)C(C)C` [compound 30] (Ac-IVLSLD[dV]PIKLK([AEEA-AEEA-γGlu-γGlu-C18 diacid])QILLKQERQKKQREQAEKN[Aib]QILEQV-NH2), the “Emax (% I)” value is reported as 15 % I.

With `CC[C@H](C)[C@H](NC(C)=O)C(=O)N[C@H](C(=O)N[C@@H](CC(C)C)C(=O)N[C@@H](CO)C(=O)N[C@@H](CC(C)C)C(=O)N[C@@H](CC(=O)O)C(=O)N[C@@H](C(=O)N1CCC[C@H]1C(=O)N[C@H](C(=O)N[C@@H](CCCCN)C(=O)N[C@@H](CC(C)C)C(=O)N[C@@H](CCCCNC(=O)CC[C@H](NC(=O)CCCCCCCCCCCCCCC(=O)O)C(=O)O)C(=O)N[C@@H](CCC(N)=O)C(=O)N[C@H](C(=O)N[C@@H](CC(C)C)C(=O)N[C@@H](CC(C)C)C(=O)N[C@@H](CCCCN)C(=O)N[C@@H](CCC(N)=O)C(=O)N[C@@H](CCC(=O)O)C(=O)N[C@@H](CCCNC(=N)N)C(=O)N[C@@H](CCC(N)=O)C(=O)N[C@@H](CCCCN)C(=O)N[C@@H](CCCCN)C(=O)N[C@@H](CCC(N)=O)C(=O)N[C@@H](CCCNC(=N)N)C(=O)N[C@@H](CCC(=O)O)C(=O)N[C@@H](CCC(N)=O)C(=O)N[C@@H](C)C(=O)N[C@@H](CCC(=O)O)C(=O)N[C@@H](CCCCN)C(=O)N[C@@H](CC(N)=O)C(=O)N[C@@H](CCCCN)C(=O)N[C@@H](CCC(N)=O)C(=O)N[C@H](C(=O)N[C@@H](CC(C)C)C(=O)N[C@@H](CCC(=O)O)C(=O)N[C@@H](CCC(N)=O)C(=O)N[C@H](C(N)=O)C(C)C)[C@@H](C)CC)[C@@H](C)CC)[C@@H](C)CC)C(C)C)C(C)C` [SEQ ID No. 2, reference compound] (Ac-IVLSLD[dV]PIKLK([γGlu-C16 diacid])QILLKQERQKKQREQAEKNKQILEQV-NH2), the “Emax (% I)” value was found to be 4 % I.

Turning to `CC[C@H](C)[C@H](N)C(=O)N[C@H](C(=O)N[C@@H](CC(C)C)C(=O)N[C@@H](CO)C(=O)N[C@@H](CC(C)C)C(=O)N[C@@H](CC(=O)O)C(=O)N[C@@H](C(=O)N1CCC[C@H]1C(=O)N[C@H](C(=O)N[C@@H](CCCCN)C(=O)N[C@@H](CC(C)C)C(=O)N[C@@H](CCCCNC(=O)COCCOCCNC(=O)COCCOCCNC(=O)CC[C@H](NC(=O)CCCCCCCCCCCCCCC(=O)O)C(=O)O)C(=O)N[C@@H](CCC(N)=O)C(=O)N[C@H](C(=O)N[C@@H](CC(C)C)C(=O)N[C@@H](CC(C)C)C(=O)N[C@@H](CCCCN)C(=O)N[C@@H](CCC(N)=O)C(=O)N[C@@H](CCC(=O)O)C(=O)N[C@@H](CCCNC(=N)N)C(=O)N[C@@H](CCC(N)=O)C(=O)N[C@@H](CCCCN)C(=O)N[C@@H](CCCCN)C(=O)N[C@@H](CCC(N)=O)C(=O)N[C@@H](CCCNC(=N)N)C(=O)N[C@@H](CCC(=O)O)C(=O)N[C@@H](CCC(N)=O)C(=O)N[C@@H](C)C(=O)N[C@@H](CCC(=O)O)C(=O)N[C@@H](CCCCN)C(=O)N[C@@H](CC(N)=O)C(=O)N[C@@H](CCCCN)C(=O)N[C@@H](CCC(N)=O)C(=O)N[C@H](C(=O)N[C@@H](CC(C)C)C(=O)N[C@@H](CCC(=O)O)C(=O)N[C@@H](CCC(N)=O)C(=O)N[C@H](C(N)=O)C(C)C)[C@@H](C)CC)[C@@H](C)CC)[C@@H](C)CC)C(C)C)C(C)C` [SEQ ID No. 148, reference compound] (H-IVLSLD[dV]PIKLK([AEEA-AEEA-γGlu-C16 diacid])QILLKQERQKKQREQAEKNKQILEQV-NH2), the “Emax (% I)” value (listed as 2) is 63 % I.

Consider `CC[C@H](C)[C@H](NC(C)=O)C(=O)N[C@H](C(=O)N[C@@H](CC(C)C)C(=O)N[C@@H](CO)C(=O)N[C@@H](CC(C)C)C(=O)N[C@@H](CC(=O)O)C(=O)N[C@@H](C(=O)N1CCC[C@H]1C(=O)N[C@H](C(=O)N[C@@H](CCCCN)C(=O)N[C@@H](CC(C)C)C(=O)N[C@@H](CCCCNC(=O)COCCOCCNC(=O)COCCOCCNC(=O)CC[C@H](NC(=O)CC[C@H](NC(=O)CCCCCCCCCCCCCCCCC(=O)O)C(=O)O)C(=O)O)C(=O)N[C@@H](CCC(N)=O)C(=O)NC(C)(C)C(=O)N[C@@H](CC(C)C)C(=O)N[C@@H](CC(C)C)C(=O)N[C@@H](CCCCN)C(=O)N[C@@H](CCC(N)=O)C(=O)N[C@@H](CCC(=O)O)C(=O)N[C@@H](CCCNC(=N)N)C(=O)N[C@@H](CCC(N)=O)C(=O)N[C@@H](CCCCN)C(=O)N[C@@H](CCCCN)C(=O)N[C@@H](CCC(N)=O)C(=O)N[C@@H](CCCNC(=N)N)C(=O)N[C@@H](CCC(=O)O)C(=O)N[C@@H](CCC(N)=O)C(=O)N[C@@H](C)C(=O)N[C@@H](CCC(=O)O)C(=O)N[C@@H](CCCCN)C(=O)N[C@@H](CC(N)=O)C(=O)N[C@H](C(=O)N[C@@H](CCC(N)=O)C(=O)N[C@H](C(=O)N[C@@H](CC(C)C)C(=O)N[C@@H](CCC(=O)O)C(=O)N[C@@H](CCC(N)=O)C(=O)N[C@H](C(N)=O)C(C)C)[C@@H](C)CC)C(C)C)[C@@H](C)CC)C(C)C)C(C)C` [compound 27] (Ac-IVLSLD[dV]PIKLK([AEEA-AEEA-γGlu-γGlu-C18 diacid])Q[Aib]LLKQERQKKQREQAEKNVQILEQV-NH2), for which the “Emax (% I)” value turned out to be 7 % I.

Take `CCCCC(=O)N[C@H](C(=O)N[C@@H](CC(C)C)C(=O)N[C@@H](CO)C(=O)N[C@@H](CC(C)C)C(=O)N[C@@H](CC(=O)O)C(=O)N[C@@H](C(=O)N1CCC[C@H]1C(=O)N[C@H](C(=O)N[C@@H](CCCCN)C(=O)N[C@@H](CC(C)C)C(=O)N[C@@H](CCCCNC(=O)COCCOCCNC(=O)COCCOCCNC(=O)CC[C@H](NC(=O)CC[C@H](NC(=O)CCCCCCCCCCCCCCCCC(=O)O)C(=O)O)C(=O)O)C(=O)N[C@@H](CCC(N)=O)C(=O)N[C@H](C(=O)N[C@@H](CC(C)C)C(=O)N[C@@H](CC(C)C)C(=O)N[C@@H](CCCCN)C(=O)N[C@@H](CCC(N)=O)C(=O)N[C@@H](CCC(=O)O)C(=O)N[C@@H](CCCNC(=N)N)C(=O)N[C@@H](CCC(N)=O)C(=O)N[C@@H](CCCCN)C(=O)N[C@@H](CCCCN)C(=O)N[C@@H](CCC(N)=O)C(=O)N[C@@H](CCCNC(=N)N)C(=O)N[C@@H](CCC(=O)O)C(=O)N[C@@H](CCC(N)=O)C(=O)N[C@@H](C)C(=O)N[C@@H](CCC(=O)O)C(=O)N[C@@H](CCCCN)C(=O)N[C@@H](CC(N)=O)C(=O)NC(C)(C)C(=O)N[C@@H](CCC(N)=O)C(=O)N[C@H](C(=O)N[C@@H](CC(C)C)C(=O)N[C@@H](CCC(=O)O)C(=O)N[C@@H](CCC(N)=O)C(=O)N[C@H](C(N)=O)C(C)C)[C@@H](C)CC)[C@@H](C)CC)[C@@H](C)CC)C(C)C)C(C)C` [compound 32] (Pentanoyl-VLSLD[dV]PIKLK([AEEA-AEEA-γGlu-γGlu-C18 diacid])QILLKQERQKKQREQAEKN[Aib]QILEQV-NH2): the “Emax (% I)” value was 5 % I.
